# Assay results as given in patent US12673950B2, “Spiros and related analogs for inhibiting YAP/TAZ-TEAD” (THE KATHOLIEKE UNIVERSITEIT LEUVEN, priority 2021, dated 2026).
# pEC50, pIC50: −log10 of the molar value.
# How the values were obtained:
# Type in all cases: cell-based
# [1] = tested on: NCI-H226; test: Mesothelioma cell line proliferation assay (ATPlite), NCI-H226; settings: Homo sapiens, 144 h; NCI-H226 mesothelioma cells, 6 days incubation, ATPlite cell viability
# Protocol: (§1) Mesothelioma cell lines, NCI-H226 and NCI-H2052 (all sourced from the ATCC cell culture collection) are plated in 96-well plates (Corning® 96 Well White Polystyrene Microplate clear flat bottom, white polystyrene (TC-Treated)), at 1500 cells/well in full medium (RPMI 1640 ATCC modification with L-glutamine, HEPES, Phenol Red, Sodium Pyruvate, High glucose, Low sodium bicarbonate and 10% fetal bovine serum). Cells are incubated overnight at 37° C. in an incubator with 5% CO2. Then compounds, dissolved in DMSO, are added in dose-response. Cells are incubated with compound dilutions for another 6 days at 37° C. in an incubator with 5% CO2. Cell viability is quantitated using the ATPlite kit (Perkin-Elmer) and the luminescence is read-out using an Envision instrument (Perkin-Elmer). The amount of relative light units produced using the ATPlite kit is used to calculated percent of inhibition.
# (§2) The activities of some example compounds are depicted in Table 4. The activity ranges A, B and C refer to EC50 values in the mesothelioma cell line proliferation assay as described as follows: “A”: EC50<1 μM; “B”: 1 μM≤EC50≤10 μM and “C”: EC50>10 μM; NT: not tested.
# [2] = tested on: NCI-H2052; test: Mesothelioma cell line proliferation assay (ATPlite), NCI-H2052; settings: Homo sapiens, 144 h; NCI-H2052 mesothelioma cells, 6 days incubation, ATPlite cell viability
# Protocol: as §1, §2
# [3] = tested on: YAP/TAZ-TEAD transcription; test: Reporter gene assay for measuring the inhibition of YAP/TAZ-TEAD transcription (TEAD-responsive element luciferase reporter in Hek293T cells); settings: Hek293T cells transfected with TEAD-responsive luciferase reporter, 24 hours incubation
# Protocol: Hek293T cells are cultured in DMEM supplemented with 10% fetal bovine serum, Sodium pyruvate, Sodium bicarbonate, L-glutamine. The cells are harvested and transiently transfected with TEAD-responsive element luciferase reporter. Transfected cells are plated in 384-wells plate containing pre-diluted compounds. After 24 hours incubation at 37° C./5% CO2, assay plates were cooled down to RT and levelled to an equal volume per well, prior to the addition of 25 uL luciferase substrate SteadyLite (Perkin Elmer)/well. The plate was shaken for 10 min at 600 rpm, centrifuged for 1 min at 500 rpm and measured with an Envision reader (PerkinElmer). The amount of relative light units produced by the TEAD reporter is used to calculated percent of inhibition.
# The percent of reporter inhibition was calculated in the presence of a positive control inhibitor (100% inhibition) versus a condition with the presence of the vehicle basal activity of the reporter (0% inhibition). The ability of a test compound to inhibit this activity was determined as: Percentage inhibition=[1−((RLU determined in the presence of vehicle−RLU determined for sample with test compound present) divided by (RLU determined in the presence of vehicle−RLU determined for sample with positive control inhibitor))]*100
# The activities of example compounds tested are depicted in Table 3. The activity ranges A, B and C refer to IC50 values in the reporter gene assay as follows: “A”: IC50<1 μM; “B”: 1 μM≤IC50≤20 μM and “C”: IC50>20 μM; NT=not tested.
pEC50 [1],pEC50 [2],"pIC50 ([3]; Homo sapiens, HEK-293T, 24 h)",pIC50 [3],SMILES
> 6.00,> 6.00,> 6.00,,"C=CC(=O)N1CCC2(Cc3ccccc3N(c3ccc(C(F)(F)F)cc3)C2)C1 (racemic) [Cpd. No. 003, 1-(1′-(4-(trifluoromethyl)phenyl)-1′,4′-dihydro-2′H-spiro[pyrrolidine-3,3′-quinolin]-1-yl)prop-2-en-1-one]"
,,,> 6.00,"C=CC(=O)N1CCC2(Cc3ccccc3N(c3ccc(C(F)(F)F)cc3)C2)C1 (single isomer, unassigned) [Cpd. No. 003-En1, (R)- or (S)-1-(1′-(4-(trifluoromethyl)phenyl)-1′,4′-dihydro-2′H-spiro[pyrrolidine-3,3′-quinolin]-1-yl)prop-2-en-1-one]"
> 6.00,> 6.00,> 6.00,,"C=CC(=O)N1CCC2(Cc3ccccc3N(c3ccc(C(F)(F)F)cc3)C2)C1 (single isomer, unassigned) [Cpd. No. 003-En2, (R)- or (S)-1-(1′-(4-(trifluoromethyl)phenyl)-1′,4′-dihydro-2′H-spiro[pyrrolidine-3,3′-quinolin]-1-yl)prop-2-en-1-one]"
,,,< 4.70,"CCC(=O)N1CCC2(Cc3ccccc3N(c3ccc(C(F)(F)F)cc3)C2)C1 (single isomer, unassigned) [Cpd. No. 004-En1, (R)- or (S)-1-(1′-(4-(trifluoromethyl)phenyl)-1′,4′-dihydro-2′H-spiro[pyrrolidine-3,3′-quinolin]-1-yl)propan-1-one]"
,,,4.70 to 6.00,"CCC(=O)N1CCC2(Cc3ccccc3N(c3ccc(C(F)(F)F)cc3)C2)C1 (single isomer, unassigned) [Cpd. No. 004-En2, (R)- or (S)-1-(1′-(4-(trifluoromethyl)phenyl)-1′,4′-dihydro-2′H-spiro[pyrrolidine-3,3′-quinolin]-1-yl)propan-1-one]"
,,,< 4.70,"CS(=O)(=O)N1CCC2(Cc3ccccc3N(c3ccc(C(F)(F)F)cc3)C2)C1 (single isomer, unassigned) [Cpd. No. 005-En1, (R)- or (S)-1-(methylsulfonyl)-1′-(4-(trifluoromethyl)phenyl)-1′,4′-dihydro-2′H-spiro[pyrrolidine-3,3′-quinoline]]"
> 6.00,> 6.00,,> 6.00,"CS(=O)(=O)N1CCC2(Cc3ccccc3N(c3ccc(C(F)(F)F)cc3)C2)C1 (single isomer, unassigned) [Cpd. No. 005-En2, (R)- or (S)-1-(methylsulfonyl)-1′-(4-(trifluoromethyl)phenyl)-1′,4′-dihydro-2′H-spiro[pyrrolidine-3,3′-quinoline]]"
,,> 6.00,,"C=CC(=O)N1CCC2(CC1)Cc1ccccc1N(c1ccc(C(F)(F)F)cc1)C2=O [Cpd. No. 001, 1-acryloyl-1′-(4-(trifluoromethyl)phenyl)-1′,4′-dihydro-2′H-spiro[piperidine-4,3′-quinolin]-2′-one]"
> 6.00,5.00 to 6.00,> 6.00,,"C=CC(=O)N1CCC2(CC1)Cc1ccccc1N(c1ccc(C(F)(F)F)cc1)C2 [Cpd. No. 002, 1-(1′-(4-(trifluoromethyl)phenyl)-1′,4′-dihydro-2′H-spiro[piperidine-4,3′-quinolin]-1-yl)prop-2-en-1-one]"
> 6.00,> 6.00,> 6.00,,"C=CC(=O)N1CC2(Cc3ccccc3N(c3ccc(C(F)(F)F)cc3)C2)C1 [Cpd. No. 006, 1-(1′-(4-(trifluoromethyl)phenyl)-1′,4′-dihydro-2′H-spiro[azetidine-3,3′-quinolin]-1-yl)prop-2-en-1-one]"
,,< 4.70,,"CCC(=O)N1CC2(Cc3ccccc3N(c3ccc(C(F)(F)F)cc3)C2)C1 [Cpd. No. 007, 1-(1′-(4-(trifluoromethyl)phenyl)-1′,4′-dihydro-2′H-spiro[azetidine-3,3′-quinolin]-1-yl)propan-1-one]"
,,4.70 to 6.00,,"CC(NC(=O)N1CCC2(Cc3ccccc3N(c3ccc(C(F)(F)F)cc3)C2)C1)c1ccccn1 (stereo not shown) [Cpd. No. 008, N-[1-(2-pyridyl)ethyl]-1-[4-(trifluoromethyl)phenyl]spiro[2,4-dihydroquinoline-3,3′-pyrrolidine]-1′-carboxamide]"
,,> 6.00,,"C=CC(=O)N1CCC2(Cc3cc(C(F)(F)F)ccc3N(c3ccc(C(F)(F)F)cc3)C2)C1 (stereo not shown) [Cpd. No. 009, 1-[6-(trifluoromethyl)-1-[4-(trifluoromethyl)phenyl]spiro[2,4-dihydroquinoline-3,3′-pyrrolidine]-1′-yl]prop-2-en-1-one]"
,,< 4.70,,"CC(=O)N1CCC2(Cc3cc(C(F)(F)F)ccc3N(c3ccc(C(F)(F)F)cc3)C2)C1 (stereo not shown) [Cpd. No. 010, 1-[6-(trifluoromethyl)-1-[4-(trifluoromethyl)phenyl]spiro[2,4-dihydroquinoline-3,3′-pyrrolidine]-1′-yl]ethanone]"
,,> 6.00,,"CS(=O)(=O)N1CCC2(Cc3cc(C(F)(F)F)ccc3N(c3ccc(C(F)(F)F)cc3)C2)C1 (stereo not shown) [Cpd. No. 011, 1′-methylsulfonyl-6-(trifluoromethyl)-1-[4-(trifluoromethyl)phenyl]spiro[2,4-dihydroquinoline-3,3′-pyrrolidine]]"
